Measurements taken from EP1886694A1, “Peroral formulation of dienogest and ethinylestradiol for contraception” (priority 2006, dated 2008).

Experiments:
[1] = test system: Ovulationshemmung; assay: optimal dose for reliable ovulation inhibition; assay type: in vivo; details: mikronisiert, mittlere Teilchengröße ca. 3 µm
Procedure: Als schwerlöslicher Wirkstoff wird Dienogest üblicherweise mikronisiert mit einer mittleren Teilchengröße von ca. 3 µm eingesetzt. Mit dieser Partikelgrößenverteilung wurde als optimale Dosis für eine sichere Ovulationshemmung 2 mg Dienogest ermittelt.

[2] = Einzeldosis; mittlere Partikelgröße 3,7 µm compared with 22 µm; cited from earlier work

SMILES | optimale Dosis für eine sichere Ovulationshemmung [1] | Plasmaspiegel [2]
C[C@]12CCC3=C4CCC(=O)C=C4CC[C@H]3[C@@H]1CC[C@@]2(O)CC#N [Dienogest, 17α-Cyanomethyl-17-β-hydroxyestra-4,9-dien-3on] | 2 mg | 
C[C@H]1O[C@@H](O[C@H]2[C@@H](O)C[C@H](O[C@H]3[C@@H](O)C[C@H](O[C@H]4CC[C@@]5(C)[C@H](CC[C@@H]6[C@@H]5C[C@@H](O)[C@]5(C)[C@@H](C7=CC(=O)OC7)CC[C@]65O)C4)O[C@@H]3C)O[C@@H]2C)C[C@H](O)[C@@H]1O [Digoxin] |  | fast doppelt so hohe
